What was measured:
C57BL/6 male mice [1] = experiment: PCP-induced hyperactivity (psychostimulant-induced model of psychosis); format: in vivo
Description: Psychostimulant-induced hyperactivity is measured by injecting animals with PCP and monitoring the animals' activity levels in the VersaMax chambers (Accuscan Instruments, Columbus, Ohio) measuring 40×40 cm. Locomotor activity is detected by photobeam breaks as the animal crosses each beam. The animal is placed in the center of the field and left undisturbed for a period of time (20 min to 2 hr) to measure its spontaneous activity in a novel environment. Measurements used to assess locomotor activity include: horizontal activity, total distance traveled, vertical activity (rearing events—animal raises up on hindlimbs), rotation, stereotypy, and distance traveled in the center compared to total distance traveled (center: total distance ratio). The NMDA antagonist PCP induces psychosis-like conditions manifested as hyperactivity and increased stereotypic behavior. Known antipsychotics are able to reverse psychostimulant-induced hyperactivity and increased stereotypy.
C57BL/6 male mice were injected with either compound (10 mg/kg) or vehicle via i.p. Ten minutes later, the mice were injected with PCP (5 mg/kg) via i.p. The mice were placed in the activity chambers 10 minutes after PCP injection and their locomotor activities were monitored by infrared beam breaks for 20 min.
(§1) C57BL/6 male mice were administered either compound or vehicle via oral gavage. Fifteen minutes later, the mice were injected with PCP (5 mg/kg) via the i.p. route. The mice were placed in activity chambers 10 minutes after PCP injection, and their locomotor activity in the horizontal dimension was monitored by infrared beam breaks for 20 min (5 consecutive 4-minute intervals (INT) as indicated).
as §1, with “Twenty-five” for “Fifteen”, “injection” for “injection,”
C57BL/6 male mice were given either compound or vehicle by oral gavage. Twenty-five minutes later they were injected with PCP (5 mg/kg, i.p.). Ten minutes later, the mice were placed in activity chambers, and their locomotor activity in the horizontal dimension was monitored by infrared beam breaks for 20 min (5 consecutive 4-minute intervals (INT) as indicated).
C57BL/6 male mice were co-injected with PCP (5 mg/kg) and either compound or vehicle via the i.p. route. Ten minutes later, the mice were placed in activity chambers and their locomotor activity in the horizontal dimension was monitored by infrared beam breaks for 20 min (5 consecutive 4-minute intervals (INT) as indicated).
as §1, with “oral gavage. Twenty-five minutes later,” for “oral gavage. Fifteen minutes later,”, “placed in the activity chambers” for “placed in activity chambers”, “after PCP injection and their” for “after PCP injection, and their”
C57BL/6 male mice were administered either compound or vehicle via oral gavage. Twenty-five minutes later, the mice were injected with PCP (5 mg/kg) via the i.p. route. The mice were placed in the activity chambers 10 minutes after injection and their locomotor activity in the horizontal dimension was monitored by infrared beam breaks for 20 min (5 consecutive 4-minute intervals as indicated).

[2] = target: T1, recombinant human PDE 10A1 (Homo sapiens, UniProt Q9Y233); experiment: PDE10 biochemical assay (two-step Thompson and Appleman method or SPA); conditions: PDE10 inhibition; read-out: IC50
T1 construct: made in house; host or cells: Sf9 insect cells, baculoviral system
T1 sequence (Q9Y233 1-779 isoform Q9Y233-1): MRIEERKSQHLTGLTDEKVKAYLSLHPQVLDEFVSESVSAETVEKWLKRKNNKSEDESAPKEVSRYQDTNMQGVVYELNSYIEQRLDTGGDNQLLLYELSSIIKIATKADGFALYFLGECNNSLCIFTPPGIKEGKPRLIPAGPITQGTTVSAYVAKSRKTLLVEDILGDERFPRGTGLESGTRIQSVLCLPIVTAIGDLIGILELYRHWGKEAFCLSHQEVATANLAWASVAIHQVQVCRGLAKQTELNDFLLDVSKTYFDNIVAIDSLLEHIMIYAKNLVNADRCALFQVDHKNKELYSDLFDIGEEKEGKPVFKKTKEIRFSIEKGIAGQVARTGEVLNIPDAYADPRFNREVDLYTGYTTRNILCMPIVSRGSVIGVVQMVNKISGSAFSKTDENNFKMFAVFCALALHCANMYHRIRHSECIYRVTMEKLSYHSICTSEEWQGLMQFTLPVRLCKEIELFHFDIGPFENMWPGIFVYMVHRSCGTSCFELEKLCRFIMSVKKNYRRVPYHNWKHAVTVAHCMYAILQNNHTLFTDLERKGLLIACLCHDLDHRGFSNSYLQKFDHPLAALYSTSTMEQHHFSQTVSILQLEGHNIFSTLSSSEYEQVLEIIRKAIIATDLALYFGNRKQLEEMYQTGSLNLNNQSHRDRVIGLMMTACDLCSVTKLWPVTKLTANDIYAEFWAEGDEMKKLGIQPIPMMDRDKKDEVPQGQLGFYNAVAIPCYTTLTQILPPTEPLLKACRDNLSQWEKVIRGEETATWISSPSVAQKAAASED
Description: After the appropriate incubation time, the reaction is terminated by heating. The mixture is then subjected to treatment with snake venom phosphatase. […] IC50 values can be calculated by performing the experiment at several concentrations using standard graphical means. A detailed description of the actual technique used for IC50 assays as set forth in following Examples.
The phosphodiesterase (PDE) assay was performed using recombinant human PDE 1A3, 2A3, 3 catalytic region, 4 catalytic region, 5 catalytic region, 7A, 8A, 9A2, 10A1 and 11A1 enzymes expressed in a baculoviral system using Sf9 cells. PDE activity was measured using a modification of the two-step method of Thompson and Appleman described above which was adapted for 96 well plate format. […] Reactions were initiated with enzyme and incubated with (^3H)-substrate and substance for 20 minutes at 30° C. The reaction was terminated by denaturing the enzyme (heating the reaction to 70° C. for 2 minutes). The reaction was then cooled at 4° C. for 10 minutes before the addition of snake venom (Crotalus atrox, 0.2 mg/ml) for 10 minutes at 30° C., thus allowing non-specific hydrolysis of the tritiated substrate. Separation of the remaining unhydrolysed cyclic nucleotide was achieved by a batch binding of the mixture to activated Dowex (200 μl) anion exchange resin. The anion exchange resin bound the charged nucleotides, leaving only hydrolysed (^3H) substrate in the soluble fraction. The soluble fraction (50 μl) was then added to microscint-20 (200 μl) and counted on a Top Count Plate reader. Radioactivity units were plotted against inhibitor concentration and IC50 values obtained using Graph Pad Prism software.
Alternatively, phosphodiesterase activity was measured by scintillation proximity assay (SPA) with [^3H]-cGMP as substrate. Purified PDE10 was diluted and stored in 25 mM Tris-Cl (pH 8.0)/100 mM NaCl/0.05% Tween 20/50% glycerol/3 mM DTT. Assays contained (final concentrations): 50 mM Tris-Cl (pH 7.5)/8.3 mM MgCl2/1.7 mM EGTA/0.5 mg/ml BSA/5% DMSO and 2 ng PDE10 in a final volume of 0.1 mL. Inhibition was evaluated at 8 concentrations in duplicate. Reactions were initiated by addition of enzyme and were terminated after 20 minutes at 30° C. by the addition of 50 μl of SPA beads containing Zn^++. The mixture was shaken, allowed to settle for 3 hours, and counted in a Wallac plate counter. Results (net cpm) were fitted to a four parameter logistic model using Excel Solver®.

C57BL/6 male mice [3] = experiment: Conditioned avoidance response (CAR) model of psychosis; format: in vivo; conditions: for number of avoidance responses (CAR) vs vehicle: 30 trials; for conditioned avoidance response (CAR) in trained mice as compared to vehicle control: mouse, in vivo
Description: Conditioned avoidance response (CAR) is a behavioral test to evaluate antipsychotic effect of a test compound. […] Each chamber is fitted with metal grid floor that is capable of delivering electric shocks independently. A computer program is used to implement the testing paradigm as well as record the animal's movement between the two chambers through infrared beam sensors. The testing paradigm is as the follows. A mouse is placed into one chamber. A light (conditioned stimulus, CS) comes on. Five seconds later, mild electric shocks (0.4 mA) (unconditioned stimulus, US) are delivered to the chamber where the mouse is located (as detected by infrared beams) until the mouse escapes to the adjacent chamber or until 10 sec has elapsed. The US and CS always co-terminate. With randomized inter-trial intervals averaging 15 sec, 30 such CS-US pairing trials are given to each mouse each day. For each trial, an escape response is registered if the mouse crosses to the other chamber after being shocked (i.e., during the 10-sec US period), and an avoidance response is registered if the mouse crosses to the other chamber during the first 5-sec CS only period. The animals are trained in such paradigm for 15-20 days, during which the average percentage of avoidance responses will improve to 60-80%. […] These trained animals are then used for compound testing using the same paradigm.
The mice were then injected with either compound or vehicle via i.p., and 20 minutes later they were tested for 30 trials in the CAR paradigm. Vehicle treatment and compound treatment were given to the same animals on alternating days, and the effect of compound in reducing avoidance response was analyzed through within-subject comparison (paired t-test). […] The mice were then given either vehicle (15 minutes prior to testing) or compound (25 minutes prior to testing) via oral gavage, and were tested for 30 trials in the CAR paradigm. Vehicle treatment and compound treatment were given to the same animals on alternating days, and the effect of compound in reducing avoidance response was analyzed through within-subject comparison (paired t-test).
The mice were then given either vehicle (15 minutes prior to testing) or compound (25 minutes prior to testing) via oral gavage, and then were tested for 30 trials in the CAR paradigm. Vehicle treatment and compound treatment were given to the same animals on alternating days, and the effect of compound in reducing avoidance response was analyzed through within-subject comparison (paired t-test).
The mice were then given either vehicle (15 minutes prior to testing) or compound (25 minutes prior to testing) via oral gavage, and were then tested for 30 trials in the CAR paradigm. Vehicle treatment and compound treatment were given to the same animals on alternating days, and the effect of compound in reducing avoidance response was analyzed through within-subject comparison (paired t-test).
The mice were then given either vehicle (15 minutes prior to testing) or compound (25 minutes prior to testing) via oral gavage, and were tested for 30 trials in the CAR paradigm.

PDE10 [4] = conditions: cited from earlier work
PDE10 [5] = conditions: cGMP binding to PDE10; read-out: dissociation constant (Kd); cited from earlier work

| Structure (SMILES) | PCP-induced hyperactivity compared to vehicle+PCP control (C57BL/6 male mice [1]; mouse, in vivo) | hyperactivity of mice in PCP-induced model of psychosis as compared to vehicle control (C57BL/6 male mice [1]; mouse, in vivo) | number of avoidance responses (CAR) vs vehicle (C57BL/6 male mice [3]; 10 mg/kg oral) | conditioned avoidance response (CAR) in trained mice as compared to vehicle control (C57BL/6 male mice [3]) | also measured |
| --- | --- | --- | --- | --- | --- |
| CCOC(C(=O)N/N=C/c1cc(OC)c(Br)c(OC)c1)c1cccc2ncccc12 (stereo not drawn) [Compound 12-60] | – | – | – | – | PCP-induced hyperactivity compared to vehicle (C57BL/6 male mice [1]; 10 mg/kg i.p., ten minutes before PCP 5 mg/kg i.p.): a similar result; hyperactivity of mice in PCP-induced model of psychosis as compared to vehicle control (C57BL/6 male mice [1]; dose not stated): significantly reduces hyperactivity; IC50 [2]: ≤ 1000 nM |
| COc1cc(/C=N/NC(=O)C(OC)c2ccc(-n3cccn3)cc2)cc(OC)c1Br (stereo not drawn) [Compound 12-104] | reduces or abolishes the hyperactivity | significantly reduces hyperactivity | significantly reduces the number of avoidance response | significantly reduces a conditioned avoidance response | number of avoidance responses (CAR) vs vehicle (C57BL/6 male mice [3]; 30 mg/kg oral): significantly reduces the number of avoidance response |
| COc1cc(/C=N/NC(=O)C(OC)c2ccc(N3CCOCC3)cc2)cc(OC)c1Br (stereo not drawn) [Compound 12-114] | completely abolishes the hyperactivity | significantly reduces hyperactivity | significantly reduces the number of avoidance response | significantly reduces a conditioned avoidance response | – |
| CC(C)Cn1c(=O)n(C)c(=O)c2[nH]cnc21 [IBMX, reference compound] | – | – | – | – | IC50 (PDE10 [4]; read-out: IC50 (50% inhibitory concentration), inhibition of PDE10): 2600 nM |
| Nc1nc2c(ncn2[C@@H]2O[C@@H]3COP(=O)(O)O[C@H]3[C@H]2O)c(=O)[nH]1 [cGMP] | – | – | – | – | Km (PDE10 [4]; substrate hydrolysis by PDE10): 3000 nM; Kd (PDE10 [5]): > 9 µM |
